Measurements taken from PubChem BioAssay (NCI).
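48-hour exposure; five concentrations; linearly interpolated endpoints. GI50 marks 50% less growth. TGI: concentration producing complete growth inhibition.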 *1 amine or outer side, *2 acyl side, *3 side chain or, on linkers, in order; H or OH if unused. Where a SMILES comes first, the peptide text is derived from it. [ ]: non-standard residue; d: D form. The star is where a group is joined. X11 = C/C=C/CC(C)C(O)[C@H](N[*:1])C(=O)[*:2]; Decanoyl = CCCCCCCCCC(=O)*; Leu(ol) = CC(C)C[C@H](N)CO; Iva = CC[C@](C)(N)C(=O)O; Aib = CC(C)(N)C(=O)O

What was measured:
Assay in all cases: NCI-60 cell line screen, 48 h
[1] = test system: NCI-H23 lung
[2] = test system: U251 CNS
[3] = test system: A498 renal
[4] = test system: PC-3 prostate
[5] = test system: HOP-62 NSCLC
[6] = test system: SF-268 CNS
[7] = test system: EKVX NSCLC
[8] = test system: SW-620 colon
[9] = test system: MDA-MB-435
[10] = test system: K-562 leukemia
[11] = test system: SK-MEL-2 melanoma
[12] = test system: OVCAR-8 ovarian
[13] = test system: CAKI-1 renal
[14] = test system: UACC-62 melanoma
[15] = test system: COLO 205 colon
[16] = test system: MOLT-4 leukemia
[17] = test system: RPMI-8226 leukemia
[18] = test system: TK-10 renal
[19] = test system: RXF 393 renal
[20] = test system: A549 NSCLC
[21] = test system: HCT-15 colon
[22] = test system: OVCAR-4 ovarian
[23] = test system: MALME-3M melanoma
[24] = test system: NCI-H522 lung
[25] = test system: IGROV1 ovarian
[26] = test system: UACC-257 melanoma
[27] = test system: LOX IMVI melanoma
[28] = test system: UO-31 renal
[29] = test system: HL-60(TB) leukemia
[30] = test system: SNB-75 CNS
[31] = test system: SK-OV-3 ovarian
[32] = test system: T-47D breast
[33] = test system: NCI-H460 lung
[34] = test system: HS 578T breast
[35] = test system: DU-145 prostate
[36] = test system: SR leukemia
[37] = test system: BT-549 breast
[38] = test system: NCI-H226 lung
[39] = test system: HCC-2998 colon
[40] = test system: SF-295 CNS
[41] = test system: HCT-116 colon
[42] = test system: M14 melanoma
[43] = test system: HOP-92 NSCLC
[44] = test system: MDA-MB-231 breast
[45] = test system: OVCAR-3 ovarian
[46] = test system: SNB-19 CNS
[47] = test system: SK-MEL-28 melanoma
[48] = test system: SN12C renal
[49] = test system: SF-539 CNS
[50] = test system: OVCAR-5 ovarian
[51] = test system: KM12 colon
[52] = test system: CCRF-CEM leukemia
[53] = test system: 786-0 renal
[54] = test system: ACHN renal
[55] = test system: MCF7 breast
[56] = test system: NCI/ADR-RES ovarian
[57] = test system: HT29 colon
[58] = test system: SK-MEL-5 melanoma

## C/C=C/CC(C)C(O)[C@H](NC(=O)[C@@H]1CCCN1C(=O)C(C)(C)NC(=O)CCCCCCCCC)C(=O)N[C@@](C)(CC)C(=O)N[C@@H](CCC(N)=O)C(=O)N[C@H](CCC(N)=O)C(=O)NC(C)(C)C(=O)NC(C)(C)C(=O)N[C@@H](CCC(N)=O)C(=O)N[C@H](CC(C)C)C(=O)N[C@H](CO)CC(C)C (stereo partly drawn) (Decanoyl-[Aib]P[X11][Iva]Q[dQ][Aib][Aib]Q[dL][Leu(ol)])
[1]
  GI50: 2.32 µM
  TGI: 5.42 µM
[2]
  GI50: 1.75 µM
  TGI: 3.36 µM
[3]
  GI50: 1.94 µM
  TGI: 3.68 µM
[4]
  GI50: 1.84 µM
  TGI: 3.65 µM
[5]
  GI50: 1.99 µM
  TGI: 4.06 µM
[6]
  GI50: 1.83 µM
  TGI: 3.56 µM
[7]
  GI50: 1.85 µM
  TGI: 3.77 µM
[8]
  GI50: 2.75 µM
  TGI: 7.17 µM
[9]
  GI50: 1.68 µM
  TGI: 3.05 µM
[10]
  GI50: 1.95 µM
  TGI: 4 µM
[11]
  GI50: 1.81 µM
  TGI: 3.49 µM
[12]
  GI50: 1.84 µM
  TGI: 3.99 µM
[13]
  GI50: 2.13 µM
  TGI: 5.02 µM
[14]
  GI50: 1.75 µM
  TGI: 3.38 µM
[15]
  GI50: 2 µM
  TGI: 4.44 µM
[16]
  GI50: 2.33 µM
  TGI: 4.93 µM
[17]
  GI50: 2.05 µM
  TGI: 4.51 µM
[18]
  GI50: 2.13 µM
  TGI: 4.93 µM
[19]
  GI50: 2.15 µM
  TGI: 4.01 µM
[20]
  GI50: 3.02 µM
  TGI: 9.38 µM
[21]
  GI50: 2.54 µM
  TGI: 6.93 µM
[22]
  GI50: 3.91 µM
  TGI: 9.05 µM
[23]
  GI50: 1.56 µM
  TGI: 2.96 µM
[24]
  GI50: 1.7 µM
  TGI: 3.36 µM
[25]
  GI50: 2.34 µM
  TGI: 6.31 µM
[26]
  GI50: 1.77 µM
  TGI: 3.37 µM
[27]
  GI50: 1.73 µM
  TGI: 3.3 µM
[28]
  GI50: 1.56 µM
  TGI: 3.12 µM
[29]
  GI50: 1.93 µM
  TGI: 4.12 µM
[30]
  GI50: 1.48 µM
  TGI: 2.98 µM
[31]
  GI50: 3.85 µM
  TGI: 8.71 µM
[32]
  GI50: 2.31 µM
  TGI: 5.95 µM
[33]
  GI50: 1.86 µM
  TGI: 3.45 µM
[34]
  GI50: 1.78 µM
  TGI: 3.49 µM
[35]
  GI50: 1.73 µM
  TGI: 3.13 µM
[36]
  GI50: 1.37 µM
  TGI: 3.07 µM
[37]
  GI50: 1.98 µM
  TGI: 3.67 µM
[38]
  GI50: 2.07 µM
  TGI: 4.56 µM
[39]
  GI50: 2.16 µM
  TGI: 4.63 µM
[40]
  GI50: 1.76 µM
  TGI: 3.32 µM
[41]
  GI50: 2.41 µM
  TGI: 6.09 µM
[42]
  GI50: 1.81 µM
  TGI: 3.44 µM
[43]
  GI50: 1.84 µM
  TGI: 4.08 µM
[44]
  GI50: 1.71 µM
  TGI: 3.16 µM
[45]
  GI50: 2.02 µM
  TGI: 4.35 µM
[46]
  GI50: 1.7 µM
  TGI: 3.15 µM
[47]
  GI50: 1.76 µM
  TGI: 3.16 µM
[48]
  GI50: 2.17 µM
  TGI: 4.92 µM
[49]
  GI50: 1.76 µM
  TGI: 3.17 µM
[50]
  GI50: 1.73 µM
  TGI: 3.29 µM
[51]
  GI50: 1.95 µM
  TGI: 3.94 µM
[52]
  GI50: 2.04 µM
  TGI: 4.4 µM
[53]
  GI50: 1.81 µM
  TGI: 3.35 µM
[54]
  GI50: 2.45 µM
  TGI: 6.09 µM
[55]
  GI50: 1.81 µM
  TGI: 3.51 µM
[56]
  GI50: 2.04 µM
  TGI: 4.45 µM
[57]
  GI50: 2.41 µM
  TGI: 5.68 µM
[58]
  GI50: 1.79 µM
  TGI: 3.3 µM
